From ChEMBL document CHEMBL4706743, “2-Cyanoisonicotinamide Conjugation: A Facile Approach to Generate Potent Peptide Inhibitors of the Zika Virus Protease” (ACS Med Chem Lett, 2021)

Assay: Inhibition of Zika virus NS2B (45 to 96 residues)/N-terminal thrombin cleavage fused and His6-tagged NS3 (1 to 177 residues) protease expressed in Escherichia coli using Bz-Nle-Lys-Lys-Arg-AMC as substrate preincubated for 10 mins followed by substrate addition and measured for 5 mins by fluorophotometric analysis

N=C(N)NCCC[C@@H]1NC(=O)[C@H](CCCCN)NC(=O)CNC(=O)[C@@H]2CSC(=N2)c2cc(ccn2)C(=O)NCCC[C@@H](C(N)=O)NC(=O)[C@H](CCCCN)NC1=O
Ki: 1.76 µM

N=C(N)NCCC[C@@H]1NC(=O)[C@H](CCCCN)NC(=O)CNC(=O)[C@@H]2CSC(=N2)c2cc(ccn2)C(=O)NCC[C@@H](C(N)=O)NC(=O)[C@H](CCCCN)NC1=O
Ki: 14.3 µM
